Measured values published in article PMC8053501 (Diabetes, Metabolic Syndrome and Obesity: Targets and …, 2021).
Entries after “also recorded” stand apart in the source; their conditions may differ. Where two headings read alike, the source gives them in different places.

Key:
[1] = test system: diabetes mellitus patients; assay: Acute kidney injury; type: in vivo, human; details: for Association with AKI, Adjusted (95% CI): multivariate; for Association with AKI, Adjusted (95% CI) / Association with AKI, Unadjusted (95% CI): metformin as reference; for Association with AKI compared to control drug metformin, in words: multivariate analysis; for Events During the 90 days (AKI): primary endpoint, first 90 days, patients above 55 years; for Total endpoint (AKI events): primary plus secondary endpoint; for Events at secondary end (AKI): secondary endpoint, after 90 days of hospital admission; for Total Percent (incidence rate of AKI at the end of the study): share of the 4966 total outcomes
[2] = for Drug concentration, time course: normal mice; for Drug concentration, time course / Cmax / Tmax / AUC / t1/2: oral gavage, 3mg/kg; for Cmax / Tmax / AUC / Tmax determined from the drug concentration in kidney and plasma (and liver) / t1/2: mouse; for AUC: AUC for 24 hr; for Tmax determined from the drug concentration in kidney and plasma (and liver): tissue not separated
in vivo = details: male, ICR, mouse, po
[3] = Endpoint Diagnosis with 1047 Outcome
[4] = Secondary Diagnosis with 3919 Outcomes

CC1=C(C(=O)O)N2C(=O)[C@@H](NC(=O)[C@H](N)c3ccccc3)[C@H]2SC1 [Cephalexin, cephalexin]
Association with AKI, Adjusted (95% CI) [1, 3]: 1.52 (1.31–2.16)
Association with AKI, Adjusted (95% CI) [1, 4]: 1.82 (1.31–2.25)
Association with AKI compared to control drug metformin, in words [1]: increased rate of AKI; also recorded: higher risk for AKI
Events During the 90 days (AKI) [1]: 50
Total endpoint (AKI events) [1]: 333
Events at secondary end (AKI) [1]: 283
Total Percent (incidence rate of AKI at the end of the study) [1]: 6.71%
Drug concentration, time course ([2]; Kidney, 0h): 0
Drug concentration, time course ([2]; Kidney, 3h): 8130
Drug concentration, time course ([2]; Kidney, 6h): 5630
Drug concentration, time course ([2]; Kidney, 9h): 2390
Drug concentration, time course ([2]; Kidney, 12h): 450
Drug concentration, time course ([2]; Kidney, 15h): 30
Drug concentration, time course ([2]; Kidney, 18h): 0
Drug concentration, time course ([2]; Kidney, 21h): 0
Drug concentration, time course ([2]; Kidney, 24h): 0
Drug concentration, time course ([2]; Liver, 0h): 0
Drug concentration, time course ([2]; Liver, 6h): 7460
Drug concentration, time course ([2]; Liver, 9h): 4550
Drug concentration, time course ([2]; Liver, 12h): 1650
Drug concentration, time course ([2]; Liver, 15h): 340
Drug concentration, time course ([2]; Liver, 18h): 80
Drug concentration, time course ([2]; Liver, 21h): 0
Drug concentration, time course ([2]; Liver, 24h): 0
Drug concentration, time course ([2]; Plasma, 0h): 0
Drug concentration, time course ([2]; Plasma, 3h): 360
Drug concentration, time course ([2]; Plasma, 6h): 70
Drug concentration, time course ([2]; Plasma, 9h): 30
Drug concentration, time course ([2]; Plasma, 12h): 0
Drug concentration, time course ([2]; Plasma, 15h): 0
Drug concentration, time course ([2]; Plasma, 18h): 0
Drug concentration, time course ([2]; Plasma, 21h): 0
Drug concentration, time course ([2]; Plasma, 24h): 0

insulin
Association with AKI, Unadjusted (95% CI) [1, 3]: 2.26 (1.95–2.64)
Association with AKI, Adjusted (95% CI) [1, 3]: 2.36 (1.81–2.87)
Association with AKI, Unadjusted (95% CI) [1, 4]: 2.42 (1.25–2.61)
Association with AKI, Adjusted (95% CI) [1, 4]: 2.73 (2.28–2.90)
Association with AKI compared to control drug metformin, in words [1]: increased rate of AKI; also recorded: higher risk for AKI
Total endpoint (AKI events) [1]: 348
Events at secondary end (AKI) [1]: 290
Cmax ([2]; Kidney): 6.574 µg/mL
Tmax ([2]; Kidney): 1 h
AUC ([2]; Kidney): 26,742 ng/mL
Cmax ([2]; Liver): 6.087 µg/mL
Tmax ([2]; Liver): 1 h
AUC ([2]; Liver): 19,851 ng/mL
Cmax ([2]; Plasma): 0.879 µg/mL
Tmax ([2]; Plasma): 1 h
AUC ([2]; Plasma): 2985 ng/mL
Tmax determined from the drug concentration in kidney and plasma (and liver) [2]: 1 h
Drug concentration, time course ([2]; Kidney, 0h): 0
Drug concentration, time course ([2]; Kidney, 3h): 14,200
Drug concentration, time course ([2]; Kidney, 6h): 10,400
Drug concentration, time course ([2]; Kidney, 9h): 6400
Drug concentration, time course ([2]; Kidney, 12h): 3700
Drug concentration, time course ([2]; Kidney, 15h): 500
Drug concentration, time course ([2]; Kidney, 18h): 0
Drug concentration, time course ([2]; Kidney, 21h): 0
Drug concentration, time course ([2]; Kidney, 24h): 0
Drug concentration, time course ([2]; Liver, 0h): 0
Drug concentration, time course ([2]; Liver, 3h): 9400
Drug concentration, time course ([2]; Liver, 6h): 5050
Drug concentration, time course ([2]; Liver, 9h): 2380
Drug concentration, time course ([2]; Liver, 12h): 370
Drug concentration, time course ([2]; Liver, 15h): 0
Drug concentration, time course ([2]; Liver, 18h): 0
Drug concentration, time course ([2]; Liver, 21h): 0
Drug concentration, time course ([2]; Liver, 24h): 0
Drug concentration, time course ([2]; Plasma, 0h): 0
Drug concentration, time course ([2]; Plasma, 3h): 640
Drug concentration, time course ([2]; Plasma, 6h): 450
Drug concentration, time course ([2]; Plasma, 9h): 310
Drug concentration, time course ([2]; Plasma, 12h): 50
Drug concentration, time course ([2]; Plasma, 15h): 0
Drug concentration, time course ([2]; Plasma, 18h): 0
Drug concentration, time course ([2]; Plasma, 21h): 0
Drug concentration, time course ([2]; Plasma, 24h): 0

CC(C)Cc1ccc(C(C)C(=O)O)cc1 (stereo not shown) [Ibuprofen, ibuprofen]
Association with AKI, Unadjusted (95% CI) [1, 3]: 3.14 (2.87–3.74)
Association with AKI, Adjusted (95% CI) [1, 3]: 2.41 (1.91–2.54)
Association with AKI, Unadjusted (95% CI) [1, 4]: 2.68 (2.21–3.03)
Association with AKI, Adjusted (95% CI) [1, 4]: 2.36 (1.84–2.93)
Association with AKI compared to control drug metformin, in words [1]: higher risk for AKI
Association with AKI compared to control drug metformin, in words ([1]; listed as ibuprofen): increased rate of AKI
Events During the 90 days (AKI) [1]: 124
Events at secondary end (AKI) [1]: 433
Total Percent (incidence rate of AKI at the end of the study) [1]: 11.22%
Drug concentration, time course ([2]; Kidney, 0h): 0
Drug concentration, time course ([2]; Kidney, 6h): 16,500
Drug concentration, time course ([2]; Kidney, 9h): 9500
Drug concentration, time course ([2]; Kidney, 12h): 3500
Drug concentration, time course ([2]; Kidney, 15h): 1000
Drug concentration, time course ([2]; Kidney, 18h): 200
Drug concentration, time course ([2]; Kidney, 21h): 100
Drug concentration, time course ([2]; Kidney, 24h): 0
Drug concentration, time course ([2]; Liver, 0h): 0
Drug concentration, time course ([2]; Liver, 3h): 9500
Drug concentration, time course ([2]; Liver, 6h): 7600
Drug concentration, time course ([2]; Liver, 9h): 1800
Drug concentration, time course ([2]; Liver, 12h): 600
Drug concentration, time course ([2]; Liver, 15h): 150
Drug concentration, time course ([2]; Liver, 18h): 0
Drug concentration, time course ([2]; Liver, 21h): 0
Drug concentration, time course ([2]; Liver, 24h): 0
Drug concentration, time course ([2]; Plasma, 0h): 0
Drug concentration, time course ([2]; Plasma, 3h): 600
Drug concentration, time course ([2]; Plasma, 6h): 400
Drug concentration, time course ([2]; Plasma, 9h): 140
Drug concentration, time course ([2]; Plasma, 12h): 0
Drug concentration, time course ([2]; Plasma, 15h): 0
Drug concentration, time course ([2]; Plasma, 18h): 0
Drug concentration, time course ([2]; Plasma, 21h): 0
Drug concentration, time course ([2]; Plasma, 24h): 0
Tmax (in vivo): 1 h
Tmax (in vivo; 3 mg/kg): 1 h

CN(C)C(=N)N=C(N)N [Metformin, metformin]
Association with AKI, Unadjusted (95% CI) [1, 3]: 1
Association with AKI, Adjusted (95% CI) [1, 3]: 1
Association with AKI, Unadjusted (95% CI) [1, 4]: 1.0 (Reference)
Association with AKI, Adjusted (95% CI) [1, 4]: 1.0 (Reference)
Events During the 90 days (AKI) [1]: 69
Total endpoint (AKI events) [1]: 330
Events at secondary end (AKI) [1]: 261
Total Percent (incidence rate of AKI at the end of the study) [1]: 6.64%
Tmax (in vivo): 0.5 h
Tmax (in vivo; 3 mg/kg): 0.5 h

Cc1ccc([C@@H]2O[C@H](CO)[C@@H](O)[C@H](O)[C@H]2O)cc1Cc1ccc(-c2ccc(F)cc2)s1 [Canagliflozin, canagliflozin]
Association with AKI, Unadjusted (95% CI) [1, 3]: 0.85 (0.67–1.21)
Association with AKI, Adjusted (95% CI) [1, 3]: 1.06 (0.68–1.34)
Association with AKI, Unadjusted (95% CI) [1, 4]: 0.89 (0.61–1.25)
Association with AKI, Adjusted (95% CI) [1, 4]: 1.06 (0.91–1.42)
Events During the 90 days (AKI) [1]: 66
Total endpoint (AKI events) [1]: 267
Events at secondary end (AKI) [1]: 201
Total Percent (incidence rate of AKI at the end of the study) [1]: 5.38%
Cmax ([2]; Kidney): 3.765 µg/mL
Tmax ([2]; Kidney): 1 h
t1/2 ([2]; Kidney): 2.4 h
AUC ([2]; Kidney): 12,100 ng/mL
Cmax ([2]; Liver): 3.217 µg/mL
Tmax ([2]; Liver): 1 h
t1/2 ([2]; Liver): 2.8 h
AUC ([2]; Liver): 10,100 ng/mL
Cmax ([2]; Plasma): 0.542 µg/mL
Tmax ([2]; Plasma): 1 h
t1/2 ([2]; Plasma): 2.1 h
AUC ([2]; Plasma): 1432 ng/mL
Tmax determined from the drug concentration in kidney and plasma (and liver) [2]: 1 h
Drug concentration, time course ([2]; Kidney, 0h): 0
Drug concentration, time course ([2]; Kidney, 3h): 5000
Drug concentration, time course ([2]; Kidney, 6h): 4300
Drug concentration, time course ([2]; Kidney, 9h): 900
Drug concentration, time course ([2]; Kidney, 12h): 300
Drug concentration, time course ([2]; Kidney, 15h): 0
Drug concentration, time course ([2]; Kidney, 18h): 0
Drug concentration, time course ([2]; Kidney, 21h): 0
Drug concentration, time course ([2]; Kidney, 24h): 0
Drug concentration, time course ([2]; Liver, 0h): 0
Drug concentration, time course ([2]; Liver, 3h): 4700
Drug concentration, time course ([2]; Liver, 6h): 3900
Drug concentration, time course ([2]; Liver, 9h): 600
Drug concentration, time course ([2]; Liver, 12h): 100
Drug concentration, time course ([2]; Liver, 15h): 0
Drug concentration, time course ([2]; Liver, 18h): 0
Drug concentration, time course ([2]; Liver, 21h): 0
Drug concentration, time course ([2]; Liver, 24h): 0
Drug concentration, time course ([2]; Plasma, 0h): 0
Drug concentration, time course ([2]; Plasma, 3h): 500
Drug concentration, time course ([2]; Plasma, 6h): 300
Drug concentration, time course ([2]; Plasma, 9h): 50
Drug concentration, time course ([2]; Plasma, 12h): 0
Drug concentration, time course ([2]; Plasma, 15h): 0
Drug concentration, time course ([2]; Plasma, 18h): 0
Drug concentration, time course ([2]; Plasma, 21h): 0
Drug concentration, time course ([2]; Plasma, 24h): 0

CCOc1ccc(Cc2cc([C@@H]3O[C@H](CO)[C@@H](O)[C@H](O)[C@H]3O)ccc2Cl)cc1 [Dapagliflozin, dapagliflozin]
Association with AKI, Unadjusted (95% CI) [1, 3]: 0.94 (0.71–1.25)
Association with AKI, Adjusted (95% CI) [1, 3]: 0.84 (0.72–1.32)
Association with AKI, Unadjusted (95% CI) [1, 4]: 0.81 (0.63–1.33)
Association with AKI, Adjusted (95% CI) [1, 4]: 0.93 (0.58–1.24)
Events During the 90 days (AKI) [1]: 73
Total endpoint (AKI events) [1]: 298
Events at secondary end (AKI) [1]: 225
Total Percent (incidence rate of AKI at the end of the study) [1]: 6%
Total Percent (incidence rate of AKI at the end of the study) ([1]; listed as dapagliflozin): 6.0%
Tmax (in vivo): 1 h
Tmax (in vivo; 3 mg/kg): 1 h
half-life (in vivo; 3 mg/kg, t1/2): 2.8 h
